Results reported in publication PMC10439158, “The net electrostatic potential and hydration of ABCG2 affect substrate transport” (Nature Communications, 2023).
Where a chain is given by its changes, count along the chain named. One block for each compound: values may come before it.

Key:
[1] = target: T1, ABCG2 (Homo sapiens, UniProt Q9UNQ0); assay: cell-based; parameters: full-length ABCG2-WT in MEF cells; species or system MEF (mouse embryonic fibroblasts) expressing human ABCG2-WT; Inhibition of ABCG2-mediated Hoechst 33342 transport; intracellular Hoechst 33342 fluorescence accumulation; details: ABCG2-WT, 0.5 uM Hoechst 33342; read-out: Hoechst 33342 transport inhibition IC50
T1 sequence (Q9UNQ0 1-655): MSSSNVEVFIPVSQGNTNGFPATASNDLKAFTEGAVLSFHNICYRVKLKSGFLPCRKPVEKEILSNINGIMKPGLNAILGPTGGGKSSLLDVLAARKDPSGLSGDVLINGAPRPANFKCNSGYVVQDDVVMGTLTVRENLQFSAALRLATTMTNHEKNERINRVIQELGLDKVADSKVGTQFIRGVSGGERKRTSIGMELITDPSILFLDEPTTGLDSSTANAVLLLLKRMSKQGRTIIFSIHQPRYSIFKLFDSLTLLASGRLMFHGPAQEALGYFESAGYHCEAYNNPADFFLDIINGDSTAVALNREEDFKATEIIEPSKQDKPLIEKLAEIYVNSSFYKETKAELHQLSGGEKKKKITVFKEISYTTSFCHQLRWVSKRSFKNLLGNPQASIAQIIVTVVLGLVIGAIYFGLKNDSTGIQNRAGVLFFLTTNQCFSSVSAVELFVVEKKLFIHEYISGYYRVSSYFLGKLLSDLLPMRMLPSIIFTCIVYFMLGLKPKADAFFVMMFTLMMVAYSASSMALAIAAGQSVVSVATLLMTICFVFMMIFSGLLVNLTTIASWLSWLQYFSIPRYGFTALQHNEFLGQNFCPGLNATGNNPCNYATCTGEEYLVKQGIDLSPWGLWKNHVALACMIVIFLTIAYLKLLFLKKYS
Protocol: The intracellular accumulation of fluorescent Hoechst 33342, pheophorbide a, chlorin e6, and purpurin 18, ABCG2 substrates, was used to determine the function of ABCG2. For Hoechst 33342 accumulation assay, MEFs were seeded into a 96-well black clear bottom plate (Corning #3603) at 20,000 cells/well and 0.5 μM Hoechst 33342, and either [compound left out] or the test inhibitor (0.002–10 μM) were added to the culture medium followed by incubation for 2 h at 37 °C in the dark. Thereafter, the medium was removed, and cells were washed twice with 200 μL ice-cold PBS and the fluorescence of Hoechst 33342 was then quantitatively determined with a Synergy H4 microplate reader (BioTek, Winooski, VT, USA) at an excitation wavelength of 355 nm and an emission wavelength of 460 nm. The accumulation of Hoechst 33342 was normalized to protein concentration as determined using the BCA Protein Assay Kit (Pierce, Rockford, IL, USA). […] The intracellular accumulation of pheophorbide a, purpurin 18, or chlorin e6 was measured at an excitation wavelength of 405 nm and an emission wavelength of 667 nm. […] The total radioactivity was measured by liqu Fig. 4 N436A substitution affects inhibitor interaction. a–d Representative snapshots from MDS of tariquidar interacting with ABCG2. a ABCG2-WT with residues within 4 Å of tariquidar are in surface representation. […]

[2] = target: T1, ABCG2; assay: cell-based; parameters: full-length ABCG2-WT in MEF cells; species or system Abcg2-KO MEFs expressing human ABCG2-WT; Inhibition of ABCG2-mediated Hoechst 33342 efflux; intracellular Hoechst 33342 fluorescence accumulation, normalized to vector control; details: 0.5 uM Hoechst 33342 substrate, 2 h, 37 °C; read-out: IC50 for transport inhibition in WT
Protocol: The intracellular accumulation of fluorescent Hoechst 33342, pheophorbide a, chlorin e6, and purpurin 18, ABCG2 substrates, was used to determine the function of ABCG2. […] Thereafter, the medium was removed, and cells were washed twice with 200 μL ice-cold PBS and the fluorescence of Hoechst 33342 was then quantitatively determined with a Synergy H4 microplate reader (BioTek, Winooski, VT, USA) at an excitation wavelength of 355 nm and an emission wavelength of 460 nm. The accumulation of Hoechst 33342 was normalized to protein concentration as determined using the BCA Protein Assay Kit (Pierce, Rockford, IL, USA). The data were normalized by the proportion accumulated relative (%) to vector control. For the time-dependent Hoechst 33342 accumulation assay, 10 μM Hoechst 33342 was treated for different time periods (0.5, 1, 1.5, 2, 5, 10, 20, 30, 60, and 90 min). Relative intracellular Hoechst 33342 levels in the MEFs were normalized to vector control at 90 min. For the other fluorescent substrate accumulation assay, 0.5 μM pheophorbide a, 5 μM chlorin e6, or 5 μM purpurin 18 were treated for 1 h at 37 °C in the dark. The intracellular accumulation of pheophorbide a, purpurin 18, or chlorin e6 was measured at an excitation wavelength of 405 nm and an emission wavelength of 667 nm. […] Thereafter, the medium was removed and cells were washed twice with 1 mL ice-cold PBS. […] The total radioactivity was measured by liqu Apparent EC50 and IC50 values were calculated from dose-response data using nonlinear regression analysis. All experiments were independently repeated at least three times. […] Non-polar residues are grey, polar residues are green, and acidic residues are red.

[3] = target: T1, ABCG2; assay: biochemical; parameters: full-length ABCG2-WT in membrane vesicles; species or system ABCG2 membrane vesicles; Hoechst 33342 concentration-dependent thermal stabilization of ABCG2, western blot read-out, without ATP; details: thermal stabilization, without ATP
[4] = target: T2, ABCG2 (Homo sapiens, UniProt Q9UNQ0); assay: isothermal shift assay on membranes; inhibition of vanadate-sensitive ATPase in membranes; transport assay; format: biochemical
T2 construct: full-length ABCG2-WT in membrane vesicles

[5] = target: T3, ABCG2 K86M (Homo sapiens, UniProt Q9UNQ0, K86M); assay: biochemical; parameters: species or system ABCG2 membrane vesicles; Hoechst 33342 concentration-dependent thermal stabilization of ABCG2, western blot read-out, without ATP; details: thermal stabilization, without ATP
T3 construct: full-length ABCG2-WT in membrane vesicles
T3 sequence (Q9UNQ0 1-655 K86M): T1 sequence (Q9UNQ0 1-655) with K86M
Source text: (§1) The difference between ABCG-WT and ABCG2-N436A was not due to a difference in Hoechst 33342 initial uptake, given that the initial rate of uptake was linear and the slopes virtually identical for ABCG2-WT and ABCG2-N436A (Fig. 1d). The steady-state level of Hoechst 33342 was twofold lower in ABCG2-N436A cells (Fig. 1d). Steady-state drug levels represent an equilibrium between uptake and efflux rates, which can be used to estimate the rate of drug efflux. The twofold lower steady-state level of Hoechst 33342 in cells expressing ABCG2-N436A, therefore, indicates an estimated twofold increase in efflux (Fig. 1d). Direct monitoring of Hoechst 33342 efflux is not possible because of its avidity for binding to the minor groove of DNA, leaving little free Hoechst 33342 available for assessing efflux. This effect is also responsible for Hoechst 33342’s cytotoxicity, a property that we utilized as an additional approach to assess ABCG2 transport activity. […] The greater reduction in Hoechst 33342 cytotoxicity in ABCG2-N436A may be because Hoechst 33342 cytotoxicity occurs by a dual process of DNA binding and topoisomerase inhibition, both of which promote cytotoxic DNA damage. […] Consistent with the lower EC50 value of ATP (0.3 mM) for ABCG2-N436A, ABCG2-N436A was thermally stabilized by the non-hydrolyzable ATP analog AMP-PNP at lower concentrations than ABCG2-WT

[6] = target: T4, ABCG2 E211Q (Homo sapiens, UniProt Q9UNQ0, E211Q); assay: biochemical; parameters: species or system ABCG2 membrane vesicles; Hoechst 33342 concentration-dependent thermal stabilization of ABCG2, western blot read-out, without ATP; details: thermal stabilization, without ATP
T4 construct: full-length ABCG2-WT in membrane vesicles
T4 sequence (Q9UNQ0 1-655 E211Q): T1 sequence (Q9UNQ0 1-655) with E211Q
Source text: as §1

IC50 [1]: 6.04 µM
SMILES: CNC(=O)c1ccccc1Sc1ccc2c(/C=C/c3ccccn3)n[nH]c2c1 [Axitinib]

IC50 [2]: 2.4 µM
SMILES: COc1cc2nccc(Oc3ccc(NC(=O)C4(C(=O)Nc5ccc(F)cc5)CC4)cc3)c2cc1OC [Cabozantinib]

IC50 [2]: 0.77 µM
SMILES: C#Cc1cccc(Nc2ncnc3cc(OCCOC)c(OCCOC)cc23)c1 [Erlotinib]

SMILES: CCOc1ccc(-c2nc3cc(-c4nc5cc(N6CCN(C)CC6)ccc5[nH]4)ccc3[nH]2)cc1 [Hoechst 33342]
EC50 [3]: 8.8 ± 1.9 µM | IC50 [4]: 35 µM | EC50 [5]: 31 ± 1 µM | EC50 [6]: 16 ± 3 µM

IC50 [2]: 4.34 µM
SMILES: CNC(=O)c1cc(Oc2ccc(NC(=O)Nc3ccc(Cl)c(C(F)(F)F)c3)cc2)ccn1 [Sorafenib]

IC50 [2]: 4.15 µM
SMILES: CCCS(=O)(=O)Nc1ccc(F)c(C(=O)c2c[nH]c3ncc(-c4ccc(Cl)cc4)cc23)c1F [Vemurafenib]
